Experimental data as given in US20110269721A1, “METHODS OF TREATING THALASSEMIA” (TargeGen, Inc., priority 2008, published 2011).

Experiments:
[1] = test system: purified erythroid cells isolated from the spleens of normal and thalassemic mice; assay: Primary splenic erythroid cell cultures with CFSE staining (cell proliferation); assay type: cell-based, mouse; conditions: for CFSE FACS profile versus untreated cells: erythroid cells from wt mice, FIG. 2A legend, n=4 per genotype; for effect on cell proliferation of erythroid cultures (CFSE): erythroid cultures from thalassemic mice, AG490 100 uM, FIG. 2A; for total cell number as % of the initial cell numbers: 48 h in culture with Epo, with colcemid, n=4
Protocol: Spleens from […] were harvested and mechanically dissociated into single cell suspensions. Murine mononuclear cells were then isolated by centrifugation using Lympholyte-M density gradients (Cedarlane Laboratories Ltd, Westbury, N.Y.) following the manufacturer's instructions. Cells were incubated on ice for 15 minutes with a cocktail containing 10 μg each of non-erythroid FITCconjugated antibodies (GR-1, MAC1, CD4, CD8, CD11b, and CD49) (BD PharMingen). After washing, the cells were incubated for 15 minutes at 4° C. with anti-FITC microbeads (Miltenyi Biotech, Auburn, Calif.). The cell suspension was placed on a magnetic column and the eluted erythroid cells were kept for RNA extraction, protein analysis, in vitro culture with carboxy-fluorescein diacetate succinimidyl ester (CFSE; MolecularProbes, Eugene, Oreg.) staining or flow cytometric analysis. CFSE was added to the cells to give a final concentration of 1.25 uM. After 10 minutes at 37° C., further dye uptake was prevented by addition of 5 volumes of cold medium and incubated in ice for 5 minutes. The cells were then washed three times and seeded at 1×10^7 cells/ml in IMDM with 30% FBS (Hyclone, South Logan, Utah 84321), 1% deionized BSA, 100 IU/ml of penicillin, 100 ug/mL of streptomycin (Mediatech, Manassas, Va.), […] beta-thioglycerol (mTG; Sigma-Aldrich), and […] rHuEpo (10 U/ml; Amgen Mfg. Ltd. Thousand Oaks, Calif.). […] In order to visualize cell division, the cultured erythroid cells were stained with CFSE. Once the dye is inside the cell, it binds to cytoskeletal proteins and is divided equally between daughter cells. Thus, it is possible to determine if cells are dividing by monitoring the reduction of CFSE fluorescence (FIG. 2A).

[2] = test system: normal and thalassemic mice; assay: In vivo administration of Jak2 inhibitor to normal and thalassemic mice; design: species or system mouse
Description: Mouse models that mimic beta-thalassemia intermedia (th3/+) and major (th3/th3) were used. (Rivella, S. et al, A novel murine model of Cooley anemia and its rescue by lentiviral mediated human beta globin gene transfer. Blood (2003) 101: 2932-2939, hereby incorporated by reference.) In th3/+ mice both the betaminor and betamajor gens have been deleted from one chromosome. Mice completely lacking adult beta-globin (th3/th3) die late in gestation. To circumvent this problem, bone marrow transplantation is conducted wherein hematopoietic fetal liver cells (HFLCs) were harvested from th3/th3 embryos at embryonic day 14.5 (E14.5) and injected into lethally irradiated syngeneic wild-type (wt) adult recipients.
Compound A, a Jak2 inhibitor, was administered to cohorts of normal and thalassemic mice of different ages. […] These observations indicate that the main role of pJak2 is to propel the erythropoietic drive.

| SMILES | CFSE FACS profile versus untreated cells [1] | effect on cell proliferation of erythroid cultures (CFSE) [1] | total cell number as % of the initial cell numbers ([1]; th3/+ erythroid cells) [%] | total cell number as % of the initial cell numbers ([1]; th3/th3 erythroid cells) [%] | total cell number as % of the initial cell numbers ([1]; wt erythroid cells) [%] | spleen size ([2]; 6- and 12-week old thalassemic mice, 10 and 18 days of treatment) | Hb levels ([2]; thalassemic mice, 10 and 18 days of treatment) | erythropoiesis and size of the spleen ([2]; young normal animals) |
| --- | --- | --- | --- | --- | --- | --- | --- | --- |
| N#C/C(=C/c1ccc(O)c(O)c1)C(=O)NCc1ccccc1 [AG490] | little difference from untreated cells | blocking cell proliferation |  |  |  |  |  |  |
| CN[C@H]1CCc2cc(OC)c(OC)c(OC)c2-c2ccc(OC)c(=O)cc21 [colcemid] | little difference from untreated cells |  | 88±18 | 72±25 | 46±9 |  |  |  |
| Cc1cnc(Nc2ccc(N3CCN(C)CC3)cc2)nc1Nc1cccc(S(=O)(=O)NC(C)(C)C)c1 [compound A] |  | blocking cell proliferation |  |  |  | dramatically reduced | decreasing Hb levels | affected both erythropoiesis and the size of the spleen |
